Results published in patent publication US10987360B2, “Hepatitis B core protein modulators” (Assembly Biosciences, Inc., priority 2016, dated 2021).
Like-named read-outs stand apart in the source and are kept apart here.

Experiments:
[1] = tested on: HBV viral load in AD38 cells; test: Viral load production in AD38 cells, quantitative PCR of the core sequence in supernatant; assay type: cell-based; conditions: 6 days incubation; for activity at 10 µM: Hepatitis B virus, 144 h
Method: (§1) Assay Measuring Activity of Compounds on Viral Production in and on Viability of AD38 Cells
(§2) AD38 cells grown in a 175 cm flask with “Growth Medium” (DMEM/F12 (1:1) (cat #SH30023.01, Hyclone, 1×Pen/step (cat #: 30-002-CL, Mediatech, Inc), 10% FBS (cat #: 101, Tissue Culture Biologics), 250 μg/mL G418 (cat #: 30-234-CR, Mediatech, Inc), 1 μg/mL Tetracycline (cat #: T3325, Teknova)) were detached with 0.25% trypsin. Tetracycline-free “treatment medium” (15 mL DMEM/F12 (1:1) (cat #SH30023.01, Hyclone, 1×Pen/step (cat #: 30-002-CL, Mediatech, Inc), with 2% FBS, Tet-system approved (cat #: 631106, Clontech) were then added to mix and spun at 1300 rpm for 5 min. Pelleted cells were then re-suspended/washed with 50 mL of 1×PBS 2 times and 10 mL Treatment Medium one time. AD38 cells were then re-suspended with 10 mL of Treatment Medium and counted. Wells of a collagen coated 96-well NUNC microtiter plate were seeded at 50,000/well in 180 μL of Treatment Medium, and 20 μL of in treatment media with either 10% DMSO (Control) or a 10× solution of compound in 10% DMSO was added. Plates were incubated for 6 days at 37° C.
Viral load production was assayed by quantitative PCR of the core sequence. Briefly, 5 μL of clarified supernatant was added to a PCR reaction mixture that contained forward primers HBV-f 5′-CTGTGCCTTGGGTGGCTTT-3′, Reverse primers HBV-r 5′-[…]-3′ and Fluorescent TaqMan™ Probes HBV-probe 5′-FAM/AGCTCCAAA/ZEN/[…]/3IABkFQ-3′ in Quanta Biosciences PerfeCTa® qPCR Toughmix®, and was subsequently on an Applied Biosystems VIIA7 in a final volume of 20 μL. The PCR mixture was incubated at 45° C. for 5 minutes, then 95° C. for 10 min, followed by 40 cycles of 10 seconds at 95° C. and 20 seconds at 60° C. Viral load was quantitated against known standards by using ViiA™ 7 Software. Viral load in the supernatant from wells with treated cells were compared against viral load in supernatant from DMSO control wells (≥3 per plate).

AD38 cells = test: Viability of AD38 cells, Promega CellTiter-Glo; assay type: cell-based; conditions: 6 days incubation, controls being 100%; for AD38 Viability Normalized Result (CPAM/DMSO %) at 10 μM: Table 6, compounds of Group 4
Method: as §1, §2
At the end of compound treatment period cell viability was assessed using a Promega CellTiter-Glo protocol. All supernatant was removed the previously treated 96-well microtiter plate, and 50 μL Tetracycline-free treatment medium (DMEM/F12 (1:1), 1×Pen/step (cat #: 30-002-CL, Mediatech, Inc), with 2% FBS, Tet-system approved (cat #: 631106, Clontech), and 1% DMSO was added back to each well. Another 50 μL of CellTiter-Glo reagent solution (Promega, G7573) was then added at room temperature and the contents mixed for 2 minutes on an orbital shaker to induce cell lysis. This was followed by incubation at room temperature for 10 minutes to stabilize the luminescent signal. The luminescence was recorded for 0.2 seconds per well on a Tecan multimode platereader (Infinite M1000 pro). The luminescent signal from each well was normalized against that of untreated (DMSO) control wells. All results in Tables 3-6 were reported with percent viability (with controls being 100%).

[2] = Table 6, compounds of Group 4, read-out: AD38 Viral Load (CpAM/DMSO %) at 10 μM
[3] = Table 4, compounds of Group 2, read-out: AD38 Viral Load (%) (VL with cmpd/VL in DMSO control) at 10 μM

| Compound | activity at 10 µM [1, 3] | AD38 Viability Normalized Result (cmpd/DMSO %) at 10 μM (AD38 cells; Table 4, compounds of Group 2) | further results |
| --- | --- | --- | --- |
| N#Cc1ccc(-c2ncc(CNC(=O)c3ccc4c(c3)NC(=O)C43CCCCC3)s2)c(F)c1 [Compound C6-02, N-((2-(4-Cyano-2-fluorophenyl)thiazol-5-yl)methyl)-2′-oxospiro[cyclohexane-1,3′-indoline]-6′-carboxamide] | – | – | activity at 10 µM [1, 2]: 41.2%; AD38 Viability Normalized Result (CPAM/DMSO %) at 10 μM (AD38 cells): 91% |
| CC1=C(C)S(=O)(=O)c2ccc(C(=O)NCc3cnc(C(F)(F)F)s3)cc2NC1=O [Compound C10-01] | 12.2% | 101% | – |
| CC1=C(C)S(=O)(=O)c2ccc(C(=O)NCc3cnc(-c4ccc(C#N)cc4F)s3)cc2NC1=O [Compound C10-02] | 4% | 95% | – |
| CC1=C(C)S(=O)(=O)c2ccc(C(=O)NCc3cnc(-n4cccn4)s3)cc2NC1=O [Compound C10-04] | 1.8% | 92% | – |
| CC1=C(C)S(=O)(=O)c2ccc(C(=O)NCc3cnc(-c4ccc(OCCCN(C)C)cc4)s3)cc2NC1=O [Compound C10-05] | 11.3% | 90% | – |
| CC1=C(C)C(=O)Nc2cc(C(=O)NCc3cnc(C(F)(F)F)s3)ccc2S1 [Compound C12-01, 2,3-Dimethyl-4-oxo-N-((2-(trifluoromethyl)thiazol-5-yl)methyl)-4,5-dihydrobenzo[b][1,4]thiazepine-7-carboxamide] | 15.5% | 97% | – |
| CC1=C(C)C(=O)Nc2cc(C(=O)NCc3cnc(-c4ccc(C#N)cc4F)s3)ccc2S1 [Compound C12-02] | 21.4% | 99% | – |
| N#Cc1ccc(-c2ncc(CNC(=O)c3ccc4cc[nH]c4c3)s2)c(F)c1 [Compound C13-02, N-((2-(4-cyano-2-fluorophenyl)thiazol-5-yl)methyl)-1H-indole-6-carboxamide] | – | – | activity at 10 µM [1, 2]: 16.1%; AD38 Viability Normalized Result (CPAM/DMSO %) at 10 μM (AD38 cells): 105% |
| Cc1c[nH]c2cc(C(=O)NCc3cnc(C(F)(F)F)s3)ccc12 [Compound C14-01, 3-Methyl-N-((2-(trifluoromethyl)thiazol-5-yl)methyl)-1H-indole-6-carboxamide] | – | – | activity at 10 µM [1, 2]: 63%; AD38 Viability Normalized Result (CPAM/DMSO %) at 10 μM (AD38 cells): 113% |
| N#Cc1ccc(-c2ncc(CNC(=O)c3ccc4c(CC5CCOCC5)c[nH]c4c3)s2)c(F)c1 [Compound C18-02, N-((2-(4-cyano-2-fluorophenyl)thiazol-5-yl)methyl)-3-((tetrahydro-2H-pyran-4-yl)methyl)-1H-indole-6-carboxamide] | – | – | activity at 10 µM [1, 2]: 62.9%; AD38 Viability Normalized Result (CPAM/DMSO %) at 10 μM (AD38 cells): 106% |
| O=C(NCc1cnc(C(F)(F)F)s1)c1ccc2c(C3CCCCC3)c[nH]c2c1 [Compound C19-01, 3-Cyclohexyl-N-((2-(trifluoromethyl)thiazol-5-yl)methyl)-1H-indole-6-carboxamide] | – | – | activity at 10 µM [1, 2]: 30.8%; AD38 Viability Normalized Result (CPAM/DMSO %) at 10 μM (AD38 cells): 79% |
| Cc1[nH]c2cc(C(=O)NCc3cnc(C(F)(F)F)s3)ccc2c1C1CCCCC1 [Compound C20-01, 3-Cyclohexyl-2-methyl-N-((2-(trifluoromethyl)thiazol-5-yl)methyl)-1H-indole-6-carboxamide] | – | – | activity at 10 µM [1, 2]: 45.9%; AD38 Viability Normalized Result (CPAM/DMSO %) at 10 μM (AD38 cells): 47% |
| O=C1CC2CCCCN2c2ccc(C(=O)NCc3cnc(C(F)(F)F)s3)cc2N1 (centres unmarked) [Compound C21-01] | 45.9% | 39% | – |
| N#Cc1ccc(-c2ncc(CNC(=O)c3ccc4c(c3)NC(=O)CC3CCCCN43)s2)c(F)c1 (centres unmarked) [Compound C21-02] | 48.9% | 15% | – |
| Cc1c(C(=O)NCc2cnc(-c3ccc(OCCCN(C)C)cc3)s2)ccc2c1NC(=O)c1ccncc1S2(=O)=O [Compound C22-01] | 7.1% | 92% | – |
| Cc1c(C(=O)NCc2cnc(-n3cccn3)s2)ccc2c1NC(=O)c1ccncc1S2(=O)=O [Compound C22-02] | 0.9% | 85% | – |
| Cc1c(C(=O)NCc2cnc(-c3ccc(C#N)cc3F)s2)ccc2c1NC(=O)c1ccncc1S2(=O)=O [Compound C22-03] | 0.5% | 90% | – |
| N#Cc1ccc(-c2ncc(CNC(=O)c3ccc4c(c3)NC(=O)C3CCCN3S4(=O)=O)s2)c(F)c1 (centres unmarked) [Compound C24-02] | 43% | 100% | – |
| O=C(NCc1cnc(-n2cccn2)s1)c1ccc2c(c1)NC(=O)C1CCCN1S2(=O)=O (centres unmarked) [Compound C24-04] | 7.7% | 104% | – |
| N#Cc1ccc(-c2ncc(CNC(=O)c3ccc4c(c3)NC(=O)C3CCCCN3S4(=O)=O)s2)c(F)c1 (centres unmarked) [Compound C25-02] | 0.5% | 95% | – |
| O=C(NCc1cnc(-n2cccn2)s1)c1ccc2c(c1)NC(=O)C1CCCCN1S2(=O)=O (centres unmarked) [Compound C25-04] | 5.4% | 98% | – |
| O=C1NC2=C(CCN(C(=O)NCc3cnc(-n4cccn4)s3)C2)S(=O)(=O)c2ccccc21 [Compound C43-01, N-((2-(1H-pyrazol-1-yl)thiazol-5-yl)methyl)-10-oxo-3,4,10,11-tetrahydrobenzo[f]pyrido[4,3-b][1,4]thiazepine-2(1H)-carboxamide 5,5-dioxide] | 64.4% | 97% | – |
| CN(C)CCCOc1ccc(-c2ncc(CNC(=O)c3ccc4c(c3)NC(=O)c3ccncc3S4(=O)=O)s2)cc1 [Compound C46-01] | 8.5% | 101% | – |
| O=C(NCc1cnc(-n2cccn2)s1)c1ccc2c(c1)NC(=O)c1ccncc1S2(=O)=O [Compound C46-02] | 0.9% | 102% | – |
| ten-butyl (2-(4-(5-((5,5-dioxido-11-oxo-10,11-dihydrodibenzo[b,f][1,4]thiazepine-8-carboxamido) methyl) thiazol-2-yl) piperidin-1-yl)-2-oxoethyl) (methyl) carbamate [Compound 1035-A] | – | – | AD38 Viral Load (%) (VL with cmpd/VL in DMSO control) at 10 μM ([1]; Table 3, compounds of Group 1): 57.8%; AD38 Viability Normalized Result (cmpd/DMSO %) at 10 μM (AD38 cells; Table 3, compounds of Group 1): 102% |
